# From patent US20250161299A1, “ORAL PCLX-001 IN THE TREATMENT OF HUMAN CANCER” (PACYLEX PHARMACEUTICALS INC., priority 2022, published 2025)
# “Also recorded” adds a separate entry of the source. Read-outs that look alike come from different tables or passages of the source.
# Test: Phase I trial of oral PCLX-001: plasma pharmacokinetics, noncompartmental analysis (Phoenix WinNonlin 8.3)
# Assay type: in vivo, human
# Settings: for half-life / Tmax / AUC(0-inf) / Cmax / AUC(0-t): human, plasma, po; for half-life: read-out: Half-life (converted); for Tmax: read-out: Tmax; for AUC(0-t): read-out: AUClast or AUCtau
# From the text: The clinical trial is entitled “Phase I Trial of PCLX-001 in B-cell Non-Hodgkin Lymphoma and Advanced Solid Malignancies” and registered at clinicaltrials.gov as NCT04836195. It is a phase I dose-escalation study of oral PCLX-001, conducted in a multicenter, non-randomized, open-label, non-controlled design. The study is comprised of two parts: Part A (single-agent dose escalation) and Part B (single-agent expansion cohorts).
# Patients are to receive daily oral PCLX-001 on 28-day cycles, beginning with a starting dose of 20 mg.
# […] After dosing, the blood samples (volumes 3 mL) were serially collected into heparinized tubes from a right forearm butterfly cannula. All blood fluid specimens were frozen and later assayed using a validated UHPLC-MS detection method.
# Noncompartmental pharmacokinetic analysis was performed using Phoenix WinNonlin 8.3 using trapezoidal rule and linear up log down methodology. WinNonlin was allowed to pick optimal terminal phases.
# Nonparametric superposition was performed using Phoenix WinNonlin Nonparametric Superposition to predict steady state data based upon Day 1 data for each patient. It utilized the 8- and 24-hour time points for estimation of terminal phase for the purposes of this exercise. We simulated 20 mg daily oral dosing and simulations were conducted out to steady state. Results are show in FIGS. 5, 6, and 7.
# In the non-compartmental analysis, Phoenix WinNonlin 8.3 trapezoidal rule was used, with linear up log down method. This allowed WinNonlin to pick optimal terminal phase (WinNonlin will accept Rsq adjusted to >0.7). Additional analysis to assess adequate fie included visual inspection of data, and AUCextrap should be <15%.
# Phoenix WinNonlin 8.3 trapezoidal rule. Used linear up log down method. Allowed WinNonlin to pick optimal terminal phase (WinNonlin will accept Rsq adjusted >0.7).
# Other analysis to assess adequate fit. Visual inspection of data. AUCextrap should be <15%.
# [1] = 20 mg, Table 1A, Patient 115-002-004 (Patient 3), Day 15, 20 mg oral daily
# [2] = 20 mg, Table 6, Patient 115-002-001, Day 1, 20 mg QD oral, Pantoprazole No
# [3] = 20 mg, Table 6, Patient 115-002-001, Day 15, 20 mg QD oral, Pantoprazole No
# [4] = 20 mg, Table 6, Patient 115-002-002, Day 1, 20 mg QD oral, Pantoprazole No
# [5] = 20 mg, Table 6, Patient 115-002-002, Day 15, 20 mg QD oral, Pantoprazole No
# [6] = 20 mg, Table 6, Patient 115-002-004, Day 1, 20 mg QD oral, Pantoprazole No
# [7] = 20 mg, Table 6, Patient 115-002-004, Day 15, 20 mg QD oral, Pantoprazole No
# [8] = 40 mg, Table 7, Patient 115-002-005, Day 1, 40 mg QD oral, Pantoprazole Yes
# [9] = 40 mg, Table 7, Patient 115-002-005, Day 15, 40 mg QD oral, Pantoprazole Yes
# [10] = 40 mg, Table 7, Patient 115-002-006, Day 1, 40 mg QD oral, Pantoprazole Yes
# [11] = 40 mg, Table 7, Patient 115-002-006, Day 15, 40 mg QD oral, Pantoprazole Yes
# [12] = 40 mg, Table 7, Patient 115-009-001, Day 1, 40 mg QD oral, Pantoprazole No
# [13] = 40 mg, Table 7, Patient 115-009-001, Day 15, 40 mg QD oral, Pantoprazole No
# [14] = 70 mg, Table 8, Patient 115-002-007, Day 1, 70 mg QD oral, Pantoprazole Yes
# [15] = 70 mg, Table 8, Patient 115-002-007, Day 15, 70 mg QD oral, Pantoprazole Yes
# [16] = 70 mg, Table 8, Patient 115-002-008, Day 1, 70 mg QD oral, Pantoprazole Yes
# [17] = 70 mg, Table 8, Patient 115-002-008, Day 15, 70 mg QD oral, Pantoprazole Yes
# [18] = 70 mg, Table 8, Patient 115-024-001, Day 1, 70 mg QD oral, Pantoprazole No
# [19] = 70 mg, Table 8, Patient 115-024-001, Day 15, 70 mg QD oral, Pantoprazole No
# [20] = 100 mg, Table 9, Patient 115-002-009, Day 1, 100 mg QD oral, Pantoprazole No
# [21] = 100 mg, Table 9, Patient 115-002-010, Day 1, 100 mg QD oral, Pantoprazole No
# [22] = 100 mg, Table 9, Patient 115-002-011, Day 1, 100 mg QD oral, Pantoprazole No
# [23] = 100 mg, Table 9, Patient 115-002-011, Day 15, 100 mg QD oral, Pantoprazole No
# [24] = 100 mg, Table 9, Patient 115-002-012, Day 1, 100 mg QD oral, Pantoprazole No
# [25] = 100 mg, Table 9, Patient 115-002-012, Day 15, 100 mg QD oral, Pantoprazole No
# [26] = 140 mg, Table 10, Patient 115-002-006, Day 1, Dose 140 mg QD oral, Concomitant Pantoprazole No
# [27] = 140 mg, Table 10, Patient 115-002-006, Day 15, Dose 140 mg QD oral, Concomitant Pantoprazole No
# [28] = 140 mg, Table 10, Patient 115-024-005, Day 1, Dose 140 mg QD oral, Concomitant Pantoprazole Yes
# [29] = 140 mg, Table 10, Patient 115-024-005, Day 15, Dose 140 mg QD oral, Concomitant Pantoprazole Yes
# [30] = 140 mg, Table 10, Patient 115-024-013, Day 1, Dose 140 mg QD oral, Concomitant Pantoprazole Yes
# [31] = 140 mg, Table 10, Patient 115-024-013, Day 15, Dose 140 mg QD oral, Concomitant Pantoprazole Yes
smiles,measurement,setting,value
"Cc1c(NS(=O)(=O)c2c(Cl)cc(-c3ccnc(N4CCNCC4)c3)cc2Cl)c(CC(C)C)nn1C [PCLX-001, 2,6-dichloro-N-(3-isobutyl-1,5-dimethyl-1H-pyrazol-4-yl)-4-(2-(piperazin-1-yl)pyridin-4-yl)benzene sulfonamide]",half-life,[1],6.86 h
same,Tmax,[1],0.5 h
same,AUC(0-inf),[2],2030 ng·h/mL
same,Cmax,[2],360 ng/mL
same,AUC(0-t),[2],1720 ng·h/mL
same,half-life,[2],8.34 h
same,Tmax,[2],1 h
same,AUC(0-inf),[3],3600 ng·h/mL
same,Cmax,[3],479 ng/mL
same,AUC(0-t),[3],2750 ng·h/mL
same,half-life,[3],10.9 h
same,Tmax,[3],1 h
same,Cmax,[4],142 ng/mL
same,AUC(0-t),[4],1300 ng·h/mL
same,Tmax,[4],4 h
same,AUC(0-inf),[5],2440 ng·h/mL
same,Cmax,[5],243 ng/mL
same,AUC(0-t),[5],2010 ng·h/mL
same,half-life,[5],9.42 h
same,Tmax,[5],2 h
same,AUC(0-inf),[6],1880 ng·h/mL
same,Cmax,[6],326 ng/mL
same,AUC(0-t),[6],1780 ng·h/mL
same,half-life,[6],5.51 h
same,Tmax,[6],2 h
same,AUC(0-inf),[7],2110 ng·h/mL
same,Cmax,[7],356 ng/mL
same,AUC(0-t),[7],1900 ng·h/mL
same,half-life,[7],6.47 h
same,Tmax,[7],0.5 h
same,AUC(0-inf),[8],4900 ng·h/mL
same,Cmax,[8],868 ng/mL
same,AUC(0-t),[8],4430 ng·h/mL
same,half-life,[8],7.5 h
same,Tmax,[8],0.5 h
same,AUC(0-inf),[9],7060 ng·h/mL
same,Cmax,[9],802 ng/mL
same,AUC(0-t),[9],6680 ng·h/mL
same,half-life,[9],5.54 h
same,Tmax,[9],2 h
same,Cmax,[10],7.13 ng/mL
same,AUC(0-t),[10],79.6 ng·h/mL
same,Tmax,[10],4 h
same,Cmax,[11],40.8 ng/mL
same,AUC(0-t),[11],175 ng·h/mL
same,Tmax,[11],4 h
same,AUC(0-inf),[12],12600 ng·h/mL
same,Cmax,[12],1670 ng/mL
same,AUC(0-t),[12],10100 ng·h/mL
same,half-life,[12],10.8 h
same,Tmax,[12],1 h
same,AUC(0-inf),[13],18300 ng·h/mL
same,Cmax,[13],1480 ng/mL
same,AUC(0-t),[13],13700 ng·h/mL
same,half-life,[13],11.9 h
same,Tmax,[13],2 h
same,Cmax,[14],158 ng/mL
same,AUC(0-t),[14],1960 ng·h/mL
same,Tmax,[14],4 h
same,Cmax,[15],602 ng/mL
same,AUC(0-t),[15],8130 ng·h/mL
same,Tmax,[15],4 h
same,Cmax,[16],408 ng/mL
same,AUC(0-t),[16],4550 ng·h/mL
same,Tmax,[16],8 h
same,Cmax,[17],170 ng/mL
same,AUC(0-t),[17],3380 ng·h/mL
same,Tmax,[17],8 h
same,Cmax,[18],1430 ng/mL
same,AUC(0-t),[18],9400 ng·h/mL
same,half-life,[18],9.44 h
same,Tmax,[18],1 h
same,Cmax,[19],629 ng/mL
same,AUC(0-t),[19],7300 ng·h/mL
same,Tmax,[19],4 h
same,AUC(0-inf),[20],15400 ng·h/mL
same,Cmax,[20],1740 ng/mL
same,AUC(0-t),[20],14800 ng·h/mL
same,half-life,[20],5.02 h
same,Tmax,[20],2 h
same,AUC(0-inf),[21],22400 ng·h/mL
same,Cmax,[21],2490 ng/mL
same,AUC(0-t),[21],20000 ng·h/mL
same,half-life,[21],7.17 h
same,Tmax,[21],2 h
same,AUC(0-inf),[22],16200 ng·h/mL
same,Cmax,[22],1650 ng/mL
same,AUC(0-t),[22],13200 ng·h/mL
same,half-life,[22],9.6 h
same,Tmax,[22],2 h
same,Cmax,[23],1160 ng/mL
same,AUC(0-t),[23],17900 ng·h/mL
same,Tmax,[23],4 h
same,Cmax,[24],1210 ng/mL
same,AUC(0-t),[24],12600 ng·h/mL
same,Tmax,[24],4 h
same,AUC(0-inf),[25],19400 ng·h/mL
same,Cmax,[25],1530 ng/mL
same,AUC(0-t),[25],17000 ng·h/mL
same,half-life,[25],7.56 h
same,Tmax,[25],2 h
same,AUC(0-inf),[26],24200 ng·h/mL
same,Cmax,[26],2710 ng/mL
same,AUC(0-t),[26],21200 ng·h/mL
same,half-life,[26],7.91 h
same,Tmax,[26],0.5 h
same,AUC(0-inf),[27],41900 ng·h/mL
same,Cmax,[27],2200 ng/mL
same,AUC(0-t),[27],26000 ng·h/mL
same,half-life,[27],16.4 h
same,Tmax,[27],2 h
same,AUC(0-inf),[28],4160 ng·h/mL
same,Cmax,[28],406 ng/mL
same,AUC(0-t),[28],3630 ng·h/mL
same,half-life,[28],7.56 h
same,Tmax,[28],1 h
same,AUC(0-inf),[29],7180 ng·h/mL
same,Cmax,[29],295 ng/mL
same,AUC(0-t),[29],4320 ng·h/mL
same,half-life,[29],17.4 h
same,Tmax,[29],2 h
same,AUC(0-inf),[30],11500 ng·h/mL
same,Cmax,[30],2190 ng/mL
same,AUC(0-t),[30],10900 ng·h/mL
same,half-life,[30],5.86 h
same,Tmax,[30],1 h
same,AUC(0-inf),[31],14300 ng·h/mL
same,Cmax,[31],1510 ng/mL
same,AUC(0-t),[31],11000 ng·h/mL
same,half-life,[31],10.1 h
same,Tmax,[31],1 h
same,peak plasma concentrations versus concentrations active in cultured cells,"patients 1, 2 and 3, 20 mg oral daily",exceeded those needed to suppress cultured human cancer cell growth
same,"trough plasma concentrations (immediately prior to dosing on day 2, 15, and 22)","patients 1, 2 and 3, 20 mg oral daily, versus allometric scaling from mice, rats, dogs",higher than anticipated
same,effect of pantoprazole on systemic exposure / oral absorption,patients taking pantoprazole vs not,lower in patients taking pantoprazole; also recorded: reduces oral absorption
